Key:
[1] = Acid strength (pKa) of the ester-forming acid of model compounds; type: physicochemical; conditions: pKa of the acid forming the ester bond
From the text: Table 1 illustrates the effect of acid strength on rate of hydrolytic cleavage for several model compounds.

[2] = test system: MYCN-amplified NB cells (IMR-32, ATCC CCL-127); experiment: Antiproliferative effect of co-drug loaded nanoparticles on neuroblastoma cells; type: cell-based; conditions: IMR-32 cells, doses equivalent to 5-20 ng SN-22 per well, 96-well plates
Experimental: Blank NP were used as a negative control, and unmodified SN-22, diluted in cell culture medium from a DMSO stock, was used as a positive control.
Cell growth curves of NB cells treated with co-drug loaded nanoparticles at doses corresponding to 5 ng SN-22 per well (96-well plates) for 24 hours are shown in comparison to “no treatment”, drug-free nanoparticles and free SN-22 (upper panel). Cell growth inhibition (%) determined 6 days post-treatment is shown for co-drug loaded and drug-free (control) nanoparticles as a function of dose and exposure duration (lower panel).

[3] = Release studies of co-drug loaded nanoparticles, external sink method; type: physicochemical; conditions: sink conditions, 37° C., acceptor medium heptane/methyl tert-butyl ether 1:1 v/v
Experimental: Release samples were also analyzed by TLC (right panel). […] (lane 3 vs. 2). Free SN-22 is included in lane 1.

CCOC(=O)COC(C)=O [CH3COOCH2COOEt]
Acid pKa [1]: 2.7

CCOC(C)=O [CH3COOEt]
Acid pKa [1]: 4.7

CCOC(=O)C(=O)NC [CH3NHCOCOEt]
Acid pKa [1]: 1.8

CCOC(=O)COC [CH3OCH2COOEt]
Acid pKa [1]: 3.6

CCc1c2c(nc3ccccc13)-c1cc3c(c(=O)n1C2)COC(=O)[C@]3(O)CC [SN-22, 7-ethylcamptothecin]
Cell growth / proliferation inhibition [2]: fully inhibited cell growth

SN-22 ester of tocopheryl oxyacetic acid [SN22-TOAc]
Release rate from nanoparticles [3]: more stable retention

Reference: US11633485B2, “Cleavable esters for nanocarrier-based cancer therapy” (priority 2017, dated 2023)
